Source: US9862711B2, “Pyrazine derivatives as phosphatidylinositol 3-kinase inhibitors” (NOVARTIS AG, priority 2014, dated 2018)

The compounds below were run against PI 3-kinase delta (Homo sapiens (Human), UniProt O00329) (assay: TR-FRET Adapta assay (Assay F)). Settings: read-out: Assay F PI3Kδ IC50.
Type: biochemical
Text: TR-FRET Adapta Assay for PI 3-Kinase Gamma (E), PI 3-Kinase Delta (F)
The TR-FRET Adapta™ Universal Kinase Assay Kit was purchased from Invitrogen Corporation (Carlsbad/CA, USA) (Cat. No. PV5099). The kit contains the following reagents: Adapta Eu-anti-ADP Antibody (Europium labeled anti-ADP antibody in HEPES buffered saline, Cat. No. PV5097), Alexa Fluor® 647-labeled ADP tracer (Alexa Fluor® 647-labeled ADP tracer in HEPES buffered saline, Cat. No. PV5098), TR-FRET dilution buffer pH 7.5 (Cat. No. PV3574). PIK3CD substrate phosphatidylinositol (PI) was obtained from Invitrogen (vesicules consisting of 2 mM phosphatidylinositol (PI) in 50 mM HEPES pH7.5; Cat. No. PV5371). PIK3CG substrate phosphatidylinositol-4,5-bisphosphate (PIP(4,5)2 was obtained from Invitrogen (PIP2:PS large unilamellar vesicules consisting of 1 mM PIP2: 19 mM PS in 50 mM HEPES pH7.5, 3 mM MgCl2, 1 mM EGTA; Cat. No. PV5100).
Time-Resolved Fluorescence Resonance Energy Transfer (TR-FRET) is a technology based on energy transfer between two adjacent dyes, from an excited electron in one dye (the donor) to an electron of an adjacent dye (the acceptor) through resonance, then released as a photon. This energy transfer is detected by an increase in the fluorescence emission of the acceptor, and a decrease in the fluorescence emission of the donor. TR-FRET assays for protein kinases use a long-lifetime lanthanide Terbium or Europium chelates as the donor species which overcome interference from compound autofluorescence or light scatter from precipitated compounds, by introducing a delay after excitation by a flashlamp excitation source. Results are often expressed as a ratio of the intensities of the acceptor and donor fluorophores. The ratiometric nature of such a value corrects for differences in assay volumes between wells, as well as corrects for quenching effects due to colored compounds. The Adapta™ assay can be divided into two phases: a kinase reaction phase and an ADP detection phase. In the kinase reaction phase, all kinase reaction components are added to the well and the reaction is allowed to incubate for a set period of time specific for each kinase. After the reaction, a detection solution of Eu-labeled anti-ADP antibody, Alexa Fluor® 647-labeled ADP tracer, and EDTA (to stop the kinase reaction) are added to the assay well. ADP formed by the kinase reaction will displace the Alexa Fluor® 647-labeled ADP tracer from the antibody, resulting in a decrease in TR-FRET signal. In the presence of an inhibitor, the amount of ADP formed by the kinase reaction is reduced, and the resulting intact antibodytracer interaction maintains a high TR-FRET signal. In the Adapta™ assay, the donor (Europium-anti-ADP antibody) is excited at 340 nm and will transfer its energy to the acceptor (Alexa Fluor® 647-labeled ADP tracer). The emission from the Alexa Fluor® 647 can be monitored with a filter centered at 665 nm because it is located between the emission peaks of the donor, which is measured at 615/620 nm. 50 nL of compound dilutions were dispensed onto white 384-well small volume polystyrene plate. Then 5 μL of either PI 3-kinase gamma or PI 3-kinase delta and lipid substrate (P1 or PIP2:PS) followed by 5 μL of ATP (final assay volume 10 μL) are incubated at RT. The standard reaction buffer for the Adapta™ TR-FRET assay contained 10 mM Tris-HCl pH 7.5, 3 mM MgCl2, 50 mM NaCl, 1 mM DTT, 0.05% CHAPS ((3-[(3-cholamidopropyl)dimethylammonio]-1-propanesulfonate). Reactions were stopped with 5 μL of a mixture of EDTA containing the Eu-labeled anti-ADP antibody and the Alexa Fluor® 647-labeled ADP tracer in TR-FRET dilution buffer. Plates are read 15 to 60 mins later in a Synergy2 reader using an integration time of 0.4 seconds and a delay of 0.05 seconds. Control for the 100% inhibition of the kinase reaction was performed by replacing the PI 3-kinase by the standard reaction buffer. […]

PI 3-kinase delta, sequence (O00329 2-1044): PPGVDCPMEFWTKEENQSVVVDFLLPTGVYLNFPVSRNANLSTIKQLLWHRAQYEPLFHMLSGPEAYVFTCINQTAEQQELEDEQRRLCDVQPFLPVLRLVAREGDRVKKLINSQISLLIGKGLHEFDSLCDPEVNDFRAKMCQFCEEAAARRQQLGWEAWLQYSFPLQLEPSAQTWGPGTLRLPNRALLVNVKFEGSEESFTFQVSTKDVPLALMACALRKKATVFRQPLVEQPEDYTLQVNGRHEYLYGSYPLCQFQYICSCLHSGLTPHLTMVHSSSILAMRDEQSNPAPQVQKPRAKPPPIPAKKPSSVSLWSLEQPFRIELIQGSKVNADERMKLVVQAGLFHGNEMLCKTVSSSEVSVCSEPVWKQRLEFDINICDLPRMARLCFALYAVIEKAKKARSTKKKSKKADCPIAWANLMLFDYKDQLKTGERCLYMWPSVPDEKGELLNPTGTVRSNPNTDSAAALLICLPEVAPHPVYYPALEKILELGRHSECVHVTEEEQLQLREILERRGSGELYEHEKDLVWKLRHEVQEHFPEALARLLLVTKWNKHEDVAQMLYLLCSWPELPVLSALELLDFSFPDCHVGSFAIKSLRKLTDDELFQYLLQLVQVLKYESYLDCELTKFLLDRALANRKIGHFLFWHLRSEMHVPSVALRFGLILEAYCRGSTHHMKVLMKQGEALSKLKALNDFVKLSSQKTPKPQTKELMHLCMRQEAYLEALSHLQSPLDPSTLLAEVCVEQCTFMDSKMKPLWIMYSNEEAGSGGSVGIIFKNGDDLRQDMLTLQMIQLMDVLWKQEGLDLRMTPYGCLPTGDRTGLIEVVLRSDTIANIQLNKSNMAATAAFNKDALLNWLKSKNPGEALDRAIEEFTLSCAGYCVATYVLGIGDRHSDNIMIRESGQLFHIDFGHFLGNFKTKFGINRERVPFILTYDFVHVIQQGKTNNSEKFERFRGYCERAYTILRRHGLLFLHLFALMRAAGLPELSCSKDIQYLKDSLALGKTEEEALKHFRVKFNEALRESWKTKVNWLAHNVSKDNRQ

| SMILES | IC50 [µM] |
| --- | --- |
| Cc1ccc(S(=O)(=O)NCC(C)(C)O)cc1-c1cncc(-c2cn(C)nc2C)n1 [Example 2, 3-[6-(1,3-Dimethyl-1H-pyrazol-4-yl)-pyrazin-2-yl]-N-(2-hydroxy-2-methyl-propyl)-4-methyl-benzenesulfonamide] | 0.06 |
| Cc1ncc(-c2cncc(-c3cc(S(=O)(=O)N[C@H]4CC[C@H](O)CC4)ccc3C)n2)s1 [Example 5, Trans N-(4-Hydroxycyclohexyl)-4-methyl-3-(6-(2-methylthiazol-5-yl)pyrazin-2-yl)benzenesulfonamide] | 0.09 |
| Cc1ccc(S(=O)(=O)NCCC(C)(C)O)cc1-c1cncc(-c2cn(C)nc2C)n1 [Example 3, 3-[6-(1,3-Dimethyl-1H-pyrazol-4-yl)-pyrazin-2-yl]-N-(3-hydroxy-3-methyl-butyl)-4-methyl-benzenesulfonamide] | 0.07 |
| Cc1ccc(S(=O)(=O)NCC2(C)COC2)cc1-c1cncc(-c2cn(C)nc2C)n1 [Example 4, Trans 3-[6-(1,3-Dimethyl-1H-pyrazol-4-yl)-pyrazin-2-yl]-4-methyl-N-(3-methyl-oxetan-3-ylmethyl)-benzenesulfonamide] | 0.07 |
| Cc1ncc(-c2cncc(-c3cc(S(=O)(=O)NCCCO)ccc3C)n2)s1 [Example 1, N-(3-Hydroxy-propyl)-4-methyl-3-[6-(2-methyl-thiazol-5-yl)-pyrazin-2-yl]-benzenesulfonamide] | 0.2 |

Continued, values first:

| IC50 [µM] | SMILES |
| --- | --- |
| 0.07 | Cc1ccc(S(=O)(=O)NCC(C)(C)CO)cc1-c1cncc(-c2cn(C)nc2C)n1 [Example 8, 3-[6-(1,3-Dimethyl-1H-pyrazol-4-yl)-pyrazin-2-yl]-N-(3-hydroxy-2,2-dimethyl-propyl)-4-methyl-benzenesulfonamide] |
| 0.12 | Cc1ccc(S(=O)(=O)N[C@H]2CC[C@H](O)CC2)cc1-c1cncc(-c2cccnc2)n1 [Example 11, Trans N-(4-Hydroxy-cyclohexyl)-4-methyl-3-(6-pyridin-3-yl-pyrazin-2-yl)-benzenesulfonamide] |
| 0.01 | Cc1ccc(S(=O)(=O)NCCC(C)(C)O)cc1-c1cncc(-c2cnn(CCN3CCOCC3)c2)n1 [Example 9, N-(3-Hydroxy-3-methyl-butyl)-4-methyl-3-{6-[1-(2-morpholin-4-yl-ethyl)-1H-pyrazol-4-yl]-pyrazin-2-yl}-benzenesulfonamide] |
| 0.02 | Cc1ccc(S(=O)(=O)NCCC(C)(C)O)cc1-c1cncc(-c2cn(CCN3CCOCC3)nc2C)n1 [Example 10, N-(3-Hydroxy-3-methyl-butyl)-4-methyl-3-{6-[3-methyl-1-(2-morpholin-4-yl-ethyl)-1H-pyrazol-4-yl]-pyrazin-2-yl}-benzenesulfonamide] |
